Data: paper PMC10040842, “Cyclopia extracts act as selective estrogen receptor subtype downregulators in estrogen receptor positive breast cancer cell lines: Comparison to standard of care breast cancer endocrine therapies and a selective estrogen receptor agonist and antagonist” (Frontiers in Pharmacology, 2023)
Like-named read-outs stand apart in the source and are kept apart here. Marks after values point to notes of the source that are not given here.

How the values were obtained:
ERβ [1] = biological target: T1, ERβ (Homo sapiens, UniProt Q92731); assay: Effect of translational inhibition (CHX) on modulation of ERβ protein levels in T47D cells; type: cell-based; set-up: endogenous in cells; details: 1 nM CHX, over the concentrations tested
ERα [2] = biological target: T2, ERα (Homo sapiens, UniProt P03372); assay: Western blot, dose-response modulation of ERα protein levels in MCF7 cells; type: cell-based; set-up: although both cell lines express ERα and ERβ, MCF7 has a high ERα/ERβ ratio; endogenous in cells; host or cells: MCF7; details: 24 h; for Efficacy, ERα (AVG % ER remaining ± SD): relative to vehicle (DMSO) = 100%, maximal response of fitted dose-response curve
T2 sequence (P03372 1-595): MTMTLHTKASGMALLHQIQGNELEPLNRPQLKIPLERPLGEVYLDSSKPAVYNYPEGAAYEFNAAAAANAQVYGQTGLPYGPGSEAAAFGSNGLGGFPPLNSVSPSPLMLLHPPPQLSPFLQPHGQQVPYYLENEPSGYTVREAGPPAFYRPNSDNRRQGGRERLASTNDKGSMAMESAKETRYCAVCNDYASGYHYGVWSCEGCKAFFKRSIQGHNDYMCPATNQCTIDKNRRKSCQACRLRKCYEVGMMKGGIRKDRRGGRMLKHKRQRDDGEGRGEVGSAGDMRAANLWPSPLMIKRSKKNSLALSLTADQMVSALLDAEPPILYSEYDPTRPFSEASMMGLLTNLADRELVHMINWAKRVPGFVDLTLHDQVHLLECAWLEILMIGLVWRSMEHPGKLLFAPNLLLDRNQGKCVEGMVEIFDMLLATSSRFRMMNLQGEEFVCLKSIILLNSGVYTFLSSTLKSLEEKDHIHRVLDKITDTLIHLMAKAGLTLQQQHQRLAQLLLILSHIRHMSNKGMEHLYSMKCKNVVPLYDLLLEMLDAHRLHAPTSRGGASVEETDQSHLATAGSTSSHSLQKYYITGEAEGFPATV

ERα [3] = biological target: T2, ERα; assay: Western blot, dose-response modulation of ERα protein levels in T47D cells; type: cell-based; set-up: endogenous in cells; details: 24 h; for Efficacy, ERα (AVG % ER remaining ± SD): relative to vehicle (DMSO) = 100%
ERβ [4] = biological target: T1, ERβ; assay: Western blot, dose-response modulation of ERβ protein levels in T47D cells; type: cell-based; set-up: endogenous in cells; details: 24 h, relative to vehicle (DMSO) = 100%
ERα [5] = biological target: T2, ERα; assay: Effect of translational inhibition (CHX) on modulation of ERα protein levels in T47D cells; type: cell-based; set-up: endogenous in cells; details: 1 nM CHX, over the concentrations tested
ERα [6] = biological target: T2, ERα; assay: Effect of translational inhibition (CHX) on modulation of ERα protein levels in MCF7 cells; type: cell-based; set-up: although both cell lines express ERα and ERβ, MCF7 has a high ERα/ERβ ratio; endogenous in cells; host or cells: MCF7; details: 1 nM CHX, over the concentrations tested
ERβ [7] = biological target: T1, ERβ; assay: Effect of translational inhibition (CHX) on modulation of ERβ protein levels in MCF7 cells; type: cell-based; set-up: although both cell lines express ERα and ERβ, MCF7 has a high ERα/ERβ ratio; endogenous in cells; host or cells: MCF7
ERβ [8] = biological target: T1, ERβ; assay: Western blot, dose-response modulation of ERβ protein levels in MCF7 cells; type: cell-based; set-up: although both cell lines express ERα and ERβ, MCF7 has a high ERα/ERβ ratio; endogenous in cells; host or cells: MCF7; details: 24 h, relative to vehicle (DMSO) = 100%
ERα [9] = details: MCF7, cited from earlier work; for ERα protein levels downregulated: 48 h, 1 nM E2, 100 nM fulvestrant, 1 μM 4-OHT, ref Garner et al. (2015); for ERα protein levels downregulated to: after 6 h, 100 nM, ref Yeh et al. (2013)
ERα [10] = details: T47D, cited from earlier work; for Effect on ERα protein levels: 24 h, 1 nM E2, 1 μM 4-OHT, ref Power and Thompson (2003)
ERβ [11] = biological target: T1, ERβ; set-up: although both cell lines express ERα and ERβ, MCF7 has a high ERα/ERβ ratio; endogenous in cells; host or cells: MCF7; details: cited from earlier work
ERβ [12] = biological target: T1, ERβ; set-up: endogenous in cells; method as in Power and Thompson (2003); details: T47D; 1 nM E2, 24 h 1 μM 4-OHT; ref Power and Thompson (2003); cited from earlier work
[13] = MCF7, 1 nM CHX, over the concentrations tested
[14] = MCF7, 1 nM E2, 1 μM fulvestrant, ref Mishra et al. (2016)
[15] = MCF7 cells transfected with an ERβ expression vector, 10 nM, ref Peekhaus et al. (2004)
[16] = MCF7, 1 nM E2, 24 h 1 μM 4-OHT, ref Power and Thompson (2003)

T1 sequence (Q92731 whole entry): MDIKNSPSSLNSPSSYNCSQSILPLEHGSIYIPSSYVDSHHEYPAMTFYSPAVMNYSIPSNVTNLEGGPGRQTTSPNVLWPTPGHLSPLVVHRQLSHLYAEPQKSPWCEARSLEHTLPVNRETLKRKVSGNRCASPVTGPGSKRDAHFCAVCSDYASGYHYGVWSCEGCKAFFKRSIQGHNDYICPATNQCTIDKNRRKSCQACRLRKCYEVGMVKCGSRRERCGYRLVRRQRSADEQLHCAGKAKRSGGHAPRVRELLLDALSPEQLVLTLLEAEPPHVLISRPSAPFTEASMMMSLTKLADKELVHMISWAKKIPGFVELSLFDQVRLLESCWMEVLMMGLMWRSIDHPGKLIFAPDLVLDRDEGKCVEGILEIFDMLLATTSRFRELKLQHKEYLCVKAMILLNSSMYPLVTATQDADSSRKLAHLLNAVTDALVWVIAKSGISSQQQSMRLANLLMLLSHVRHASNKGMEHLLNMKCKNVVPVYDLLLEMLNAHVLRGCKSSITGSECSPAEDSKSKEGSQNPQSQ

SMILES | Change in ERβ protein levels on addition of CHX (ERβ [1]) | Efficacy, ERα (AVG % ER remaining ± SD) (ERα [2]) | Efficacy, ERα (AVG % ER remaining ± SD) (ERα [3]) | Efficacy, ERβ (AVG % ER remaining ± SD) (ERβ [4]) | Change in ERβ protein levels on addition of CHX (ERβ [7]; [13]) | Efficacy, ERβ (AVG % ER remaining ± SD) (ERβ [8]) | Change in ERα protein levels on addition of CHX (ERα [5]) | Change in ERα protein levels on addition of CHX (ERα [6]) | ERα protein levels downregulated (ERα [9]) [%] | ERα protein levels downregulated to (ERα [9]) [%] | Effect on ERβ protein levels (ERβ [11]; [14]) | Effect on ERβ protein levels (ERβ [11]; [15]) | Effect on ERα protein levels (ERα [10]) | Effect on ERβ protein levels (ERβ [11]; [16]) | Effect on ERβ protein levels (ERβ [12]) | further results
Cc1c(-c2ccc(O)cc2)nn(-c2ccc(O)cc2)c1-c1ccc(OCCN2CCCCC2)cc1 [MPP, methylpiperidinopyrazole] | no significant difference | 120.9 ± 3.0^b*** % | 115.7 ± 3.4^b** % | 108.0 ± 2.1^b*** % | 1.1 fold | 122.0 ± 2.3^b*** % | no significant difference | 1.1 fold |  |  |  |  |  |  |  | 
CC/C(=C(\c1ccc(O)cc1)c1ccc(OCCN(C)C)cc1)c1ccccc1 [4-OHT, (2)-4-hydroxytamoxifen] |  |  |  | 151.8 ± 10.8^b*** % |  | 142.9 ± 8.2^b*** % |  |  |  |  |  |  | upregulate | significantly upregulated | significant downregulation | Change in ERβ protein levels on addition of CHX (ERβ [7]): not significantly altered
O=C1C[C@@H](c2ccc(O)cc2)Oc2cc(O)ccc21 [Liq, liquiritigenin] |  | 65.9 ± 10.9^a % | 87.5 ± 2.5^b ^, ^c % |  |  |  | no significant difference | no significant difference |  |  |  |  |  |  |  | Potency, ERα (AVG IC50 in Log μg/mL ± SD) (ERα [2]): −1.9 ± 0.8^b**** Log μg/mL; Potency, ERα (AVG IC50 in Log μg/mL ± SD) (ERα [3]): −9.8 ± 1.0^a ^, ^c** Log μg/mL

Further lines, with some results ahead:

Change in ERβ protein levels on addition of CHX (ERβ [1]) | Efficacy, ERα (AVG % ER remaining ± SD) (ERα [2]) | Efficacy, ERα (AVG % ER remaining ± SD) (ERα [3]) | Efficacy, ERβ (AVG % ER remaining ± SD) (ERβ [4]) | Change in ERβ protein levels on addition of CHX (ERβ [7]; [13]) | Efficacy, ERβ (AVG % ER remaining ± SD) (ERβ [8]) | SMILES | Change in ERα protein levels on addition of CHX (ERα [5]) | Change in ERα protein levels on addition of CHX (ERα [6]) | ERα protein levels downregulated (ERα [9]) [%] | ERα protein levels downregulated to (ERα [9]) [%] | Effect on ERβ protein levels (ERβ [11]; [14]) | Effect on ERβ protein levels (ERβ [11]; [15]) | Effect on ERα protein levels (ERα [10]) | Effect on ERβ protein levels (ERβ [11]; [16]) | Effect on ERβ protein levels (ERβ [12]) | further results
1.2 fold | 46.8 ± 6.8^a % | 64.1 ± 20.9^a % | 134.1 ± 4.8^b*** % | not significantly altered | 127.1 ± 9.6^b*** % | C[C@]12CC[C@@H]3c4ccc(O)cc4C[C@@H](CCCCCCCCC[S+]([O-])CCCC(F)(F)C(F)(F)F)[C@H]3[C@@H]1CC[C@@H]2O (stereo partly shown) [Ful, fulvestrant] |  |  | 100 | 35 | upregulated | upregulated |  |  |  | Efficacy of downregulation of ERα protein levels (ERα [9]; 1 μM, 4 h, ref Joseph et al. (2016)): 6.4%; IC50 (ERα [9]; ref Joseph et al. (2016), read-out: Potency of downregulation of ERα protein levels): 390 pM; ERα protein levels downgraded (ERα [10]; concentration range 0.03–1 μM, ref Liu et al. (2016)): more than 50%
 |  |  | 58.7 ± 9.0^a % |  | 53.3 ± 5.6^a % | C[C@]12CC[C@@H]3c4ccc(O)cc4CC[C@H]3[C@@H]1CC[C@@H]2O [E2, 17β-estradiol] |  |  | 100 | 35 | downregulated | downregulated | no effect | significantly upregulated | significantly upregulated | Effect on ERα protein levels (ERα [9]; 24 h, 1 nM E2, 1 μM 4-OHT, ref Power and Thompson (2003)): downregulated
